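Results reflect a 48-hour exposure of cells in 96-well plates to compound at five concentrations. At the GI50, growth is halved.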 Active and inactive are the calls of the source. No stated cut-off is given here; in the data, active = GI50 up to about 1.1 µM and inactive = higher.
Columns and labels:
Test in all cases: NCI anticancer screen, dose series, 48 h
BT-549 = tested on: BT-549
HOP-92 = tested on: HOP-92
SK-OV-3 = tested on: SK-OV-3
PC-3 = tested on: PC-3
DU-145 = tested on: DU-145
M14 = tested on: M14
SNB-75 = tested on: SNB-75
SF-295 = tested on: SF-295
HCT-116 = tested on: HCT-116
Hs-578T = tested on: Hs-578T
HCT-15 = tested on: HCT-15
TK-10 = tested on: TK-10
EKVX = tested on: EKVX
SK-MEL-2 = tested on: SK-MEL-2
SK-MEL-5 = tested on: SK-MEL-5
COLO 205 = tested on: COLO 205
U-251 = tested on: U-251
A498 = tested on: A498
HCC 2998 = tested on: HCC 2998
SR = tested on: SR

Structure (SMILES)	GI50 (BT-549)	GI50 (HOP-92)	GI50 (SK-OV-3)	GI50 (PC-3)	GI50 (DU-145)	GI50 (M14)	GI50 (SNB-75)	GI50 (SF-295)	GI50 (HCT-116)	GI50 (Hs-578T)	GI50 (HCT-15)	GI50 (TK-10)	GI50 (EKVX)	GI50 (SK-MEL-2)	GI50 (SK-MEL-5)	GI50 (COLO 205)	GI50 (U-251)	GI50 (A498)	GI50 (HCC 2998)	GI50 (SR)
CSC(=S)NN=C1CCCC1.CSC(=S)NN=C1CCCC1.[Zn+2]	24 µM (inactive)	0.0415 µM (active)	> 100 µM (inactive)	25.8 µM (inactive)	58.5 µM (inactive)	40.1 µM (inactive)	> 100 µM (inactive)	16.8 µM (inactive)	14.7 µM (inactive)	29.2 µM (inactive)	1.99 µM	19.8 µM (inactive)	55.1 µM (inactive)	22.7 µM (inactive)	57.1 µM (inactive)	34.6 µM (inactive)	8.93 µM (inactive)	> 100 µM (inactive)		
OC1CCN2Cc3ccccc3N=C12 (centres undefined)	> 100 µM (inactive)	> 100 µM (inactive)	> 100 µM (inactive)	> 100 µM (inactive)	> 100 µM (inactive)	> 100 µM (inactive)	> 100 µM (inactive)	> 100 µM (inactive)	> 100 µM (inactive)	> 100 µM (inactive)	> 100 µM	> 100 µM (inactive)	> 100 µM (inactive)	> 100 µM (inactive)	> 100 µM (inactive)	> 100 µM (inactive)	> 100 µM (inactive)	> 100 µM (inactive)	> 100 µM (inactive)	
Cc1cc2c(cc1-c1cc3c(cc1C)C(C(C)C)=C(O)C(=O)/C3=C\Nc1c3ccccc3nc3ccccc13)/C(=C/Nc1c3ccccc3nc3ccccc13)C(=O)C(O)=C2C(C)C	5.85 µM (inactive)	5.73 µM (inactive)	3.34 µM (inactive)	3.25 µM (inactive)	6.3 µM (inactive)	2.67 µM (inactive)	2.32 µM (inactive)	2.31 µM (inactive)	6.25 µM (inactive)	3.77 µM (inactive)	3.85 µM		1.75 µM (inactive)	5.58 µM (inactive)	3.99 µM (inactive)	1.99 µM (inactive)	4.02 µM (inactive)	7.03 µM (inactive)		3.91 µM (inactive)
NNC(=O)c1ccccc1Nc1ccccc1C(=O)NN	> 100 µM (inactive)		> 100 µM (inactive)	> 100 µM (inactive)	> 100 µM (inactive)	> 100 µM (inactive)	> 100 µM (inactive)	> 100 µM (inactive)	> 100 µM (inactive)	92.9 µM (inactive)	> 100 µM	> 100 µM (inactive)	> 100 µM (inactive)	> 100 µM (inactive)	> 100 µM (inactive)	> 100 µM (inactive)	> 100 µM (inactive)		> 100 µM (inactive)	
NS(=O)(=O)c1cccc(NC(=S)NC(=O)Nc2ccc(Cl)c(Cl)c2)c1	16.1 µM (inactive)	24 µM (inactive)	21.4 µM (inactive)	22.4 µM (inactive)	30.1 µM (inactive)	14.2 µM (inactive)	18.3 µM (inactive)	22.6 µM (inactive)	17.1 µM (inactive)	17 µM (inactive)	17.3 µM	32.5 µM (inactive)		23.2 µM (inactive)	17.1 µM (inactive)	20 µM (inactive)	22.3 µM (inactive)	12.7 µM (inactive)		
CC(C)=CCC[C@]1(C)C=Cc2c(O)c3c(c(CC=C(C)C)c2O1)O[C@]12C(=C[C@@H]4CC1C(C)(C)O[C@@]2(C/C=C(/C)C(=O)O)C4=O)C3=O	1.91 µM (inactive)	1.78 µM (inactive)	3.01 µM (inactive)	0.802 µM (active)		1.57 µM (inactive)	1.63 µM (inactive)	2.3 µM (inactive)	0.256 µM (active)	0.673 µM (active)	0.813 µM	0.861 µM (active)	1.67 µM (inactive)	2.02 µM (inactive)			0.676 µM (active)	1.73 µM (inactive)	1.34 µM (inactive)	0.317 µM (active)
Nn1c(Cc2ccccc2)n[nH]c1=O	> 100 µM (inactive)		> 100 µM (inactive)	> 100 µM (inactive)	> 100 µM (inactive)	> 100 µM (inactive)	> 100 µM (inactive)	> 100 µM (inactive)	> 100 µM (inactive)	> 100 µM (inactive)	> 100 µM	> 100 µM (inactive)	> 100 µM (inactive)	> 100 µM (inactive)	> 100 µM (inactive)	> 100 µM (inactive)	> 100 µM (inactive)	> 100 µM (inactive)	> 100 µM (inactive)	> 100 µM (inactive)
CC(=O)Nc1ccc(C(=O)NN2C(=O)C(Cl)C2c2ccc(Cl)cc2)cc1 (centres undefined)	72.6 µM (inactive)	26.1 µM (inactive)	25.4 µM (inactive)	> 100 µM (inactive)	> 100 µM (inactive)	> 100 µM (inactive)	16.1 µM (inactive)	20.6 µM (inactive)	> 100 µM (inactive)	8.83 µM (inactive)	> 100 µM	> 100 µM (inactive)	> 100 µM (inactive)	41.6 µM (inactive)	> 100 µM (inactive)	> 100 µM (inactive)	23.9 µM (inactive)		> 100 µM (inactive)	> 100 µM (inactive)
